Assay results reported in publication PMC10850145, “Hormonal steroids induce multidrug resistance and stress response genes in Neisseria gonorrhoeae by binding to MtrR” (Nature Communications, 2024).
Several values for one entry are separate records, joined by “and”; a condition that tells them apart may be missing. Equal entries are not always repeated. Entries after “also recorded” stand apart in the source; their conditions may differ.

Legend:
[1] = test system: ngo1249-lacZ expression; experiment: β-galactosidase assay, ngo1249-lacZ fusion (negative control gene); settings: WT-NGO1249-lacZ, 100 µM hormone
[2] = test system: mtrC-lacZ expression; assay type: cell-based, Neisseria gonorrhoeae; settings: only when strain produced wild-type MtrR
[3] = target: T1, MtrR binding to mtrCDE operator (21mer) (Neisseria gonorrhoeae, UniProt P39897); experiment: Plate-based fluorescence polarization DNA-binding assay, mtrCDE operator; settings: mtrCDE 21mer + 125µM
T1 construct: Hexa-histidine tag with TEV protease cleavage site (N, cleaved yes); made in house; host or cells: E. coli Rosetta Gami B(DE3) pLysS
T1 sequence (P39897 whole entry): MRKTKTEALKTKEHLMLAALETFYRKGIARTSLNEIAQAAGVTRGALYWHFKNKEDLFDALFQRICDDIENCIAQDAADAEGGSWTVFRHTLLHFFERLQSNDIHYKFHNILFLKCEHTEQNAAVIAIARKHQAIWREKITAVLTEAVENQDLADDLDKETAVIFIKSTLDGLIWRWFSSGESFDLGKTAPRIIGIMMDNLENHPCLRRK
Protocol: (§1) To analyze the effect of ethinyl estradiol on DNA binding by MtrR, fluorescence polarization DNA-binding data were collected in 96-well plates (Costar #3915 black, flat bottom). with a SpectraMax M5e Microplate Reader (Molecular Devices) and analyzed with Prism (Graphpad Software, version 10.0.0). Purified MtrR was buffer exchanged into “DNA” binding buffer (150 mM NaCl, 20 mM Tris-HCl pH 7.5, 2.5% glycerol, 1 mM TCEP). […] The binding affinity of protein for DNA was determined using the Morrison’s quadratic equation[72]. BSA and dI-dC are included as carriers and to control for nonspecific DNA binding. Samples were excited at 485 nm and polarized emissions measured at 525 nm, with a 515 nm cutoff. Controls were run with no protein (DNA ± methanol, ethinyl estradiol) to ensure that millipolarization values were not affected by experimental conditions alone. At least three independent experimental measurements were averaged for each reported binding constant.
(§2) Figure S2: Presence of Ethinyl Estradiol influences binding of MtrR to rpoH and mtrCDE operators. Plate based Fluorescence polarization DNA-binding isotherms reveal decreases in the binding affinity of MtrR for the rpoH and mtrCDE operators in the presence of ethinyl estradiol.
(§3) Experiments were run on the three independent experimental measurements were averaged for each reported binding constant. Data are represented by the mean values (point) +/- SEM (error

[4] = target: T2, MtrR (Neisseria gonorrhoeae, UniProt P39897); experiment: Isothermal titration calorimetry, ligand binding to MtrR WT; settings: ITC
T2 construct: Hexa-histidine tag with TEV protease cleavage site (N, cleaved yes); made in house; host or cells: E. coli Rosetta Gami B(DE3) pLysS
T2 sequence (P39897 whole entry): as above

[5] = test system: rpoH-lacZ expression; assay type: cell-based, Neisseria gonorrhoeae; settings: only when strain produced wild-type MtrR
[6] = target: T3, MtrR D171A (Neisseria gonorrhoeae, UniProt P39897, D171A); experiment: biochemical; assay type: binding; settings: ITC
T3 construct: Hexa-histidine tag with TEV protease cleavage site (N, cleaved yes); made in house; host or cells: E. coli Rosetta Gami B(DE3) pLysS
T3 sequence (P39897 whole entry D171A): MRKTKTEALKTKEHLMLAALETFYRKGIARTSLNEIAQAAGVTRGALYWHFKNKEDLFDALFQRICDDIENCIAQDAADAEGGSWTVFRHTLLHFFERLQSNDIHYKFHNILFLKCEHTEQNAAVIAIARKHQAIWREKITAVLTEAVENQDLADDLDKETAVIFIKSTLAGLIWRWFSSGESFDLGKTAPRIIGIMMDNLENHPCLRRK

[7] = target: T4, MtrR binding to rpoH operator (27mer) (Neisseria gonorrhoeae, UniProt P39897); experiment: Plate-based fluorescence polarization DNA-binding assay, rpoH operator; settings: for fluorescence polarization, plate-based MtrR titration: rpoH 27mer + 125µM
T4 construct: Hexa-histidine tag with TEV protease cleavage site (N, cleaved yes); made in house; host or cells: E. coli Rosetta Gami B(DE3) pLysS
T4 sequence (P39897 whole entry): as the sequence (P39897 whole entry) above
Protocol: as §1, §2, §3

[8] = target: T5, MtrR W136A (Neisseria gonorrhoeae, UniProt P39897, W136A); experiment: biochemical; assay type: binding; settings: ITC
T5 construct: Hexa-histidine tag with TEV protease cleavage site (N, cleaved yes); made in house; host or cells: E. coli Rosetta Gami B(DE3) pLysS
T5 sequence (P39897 whole entry W136A): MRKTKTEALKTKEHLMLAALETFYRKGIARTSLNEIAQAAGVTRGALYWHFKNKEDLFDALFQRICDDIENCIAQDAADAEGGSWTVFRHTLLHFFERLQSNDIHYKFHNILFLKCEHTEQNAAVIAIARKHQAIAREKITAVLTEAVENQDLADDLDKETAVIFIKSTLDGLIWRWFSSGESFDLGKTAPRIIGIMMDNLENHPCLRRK

[9] = target: T2, MtrR; set-up: method as in PMID 31331979; settings: cited from earlier work

## CC12CCC3c4ccc(O)cc4CCC3C1CCC2O (stereo not drawn) [Beta-Estradiol]
[1]
  Mean Miller units: 4.6 Miller units

## C#C[C@]1(O)CC[C@H]2[C@@H]3CCc4cc(O)ccc4[C@H]3CC[C@@]21C [Ethinyl Estradiol, ethinyl estradiol]
[2]
  induction of mtrC expression: could induce expression
[3]; MtrR WT dimer 0 nM
  fluorescence polarization, plate-based MtrR titration: 0 mP
[3]; MtrR WT dimer 37.5 nM
  fluorescence polarization, plate-based MtrR titration: 6 mP and 5 mP
[3]; MtrR WT dimer 75 nM
  fluorescence polarization, plate-based MtrR titration: 9 mP and 8 mP and 10 mP
[3]; MtrR WT dimer 100 nM
  fluorescence polarization, plate-based MtrR titration: 11 mP and 12 mP
[3]; MtrR WT dimer 150 nM
  fluorescence polarization, plate-based MtrR titration: 12 mP and 15 mP and 13 mP
[3]; MtrR WT dimer 200 nM
  fluorescence polarization, plate-based MtrR titration: 18 mP and 21 mP and 16 mP
[3]; MtrR WT dimer 300 nM
  fluorescence polarization, plate-based MtrR titration: 28 mP and 21 mP
[3]; MtrR WT dimer 400 nM
  fluorescence polarization, plate-based MtrR titration: 26 mP and 30 mP and 27 mP
[3]; MtrR WT dimer 600 nM
  fluorescence polarization, plate-based MtrR titration: 31 mP and 27 mP and 29 mP
[3]; MtrR WT dimer 800 nM
  fluorescence polarization, plate-based MtrR titration: 33 mP and 36 mP and 34 mP
[4]
  binding stoichiometry N (ligand per MtrR): ~ 1
[4]; 25 °C, 1% MeOH, read-out: equilibrium dissociation constant (Kd), MtrR WT
  Kd: 0.94 µM and ~0.94 µM
[5]
  induction of rpoH expression: could induce expression
[6]
  binding to MtrR D171A: no observable binding
[7]; presence of ethinyl estradiol, 125 µM
  change in binding affinity of MtrR for rpoH operator: decreases in
[7]; MtrR WT dimer 0 nM
  fluorescence polarization, plate-based MtrR titration: 0 mP
[7]; MtrR WT dimer 9.4 nM
  fluorescence polarization, plate-based MtrR titration: 5 mP and 3 mP and 4 mP
[7]; MtrR WT dimer 25 nM
  fluorescence polarization, plate-based MtrR titration: 10 mP and 5 mP
[7]; MtrR WT dimer 37.5 nM
  fluorescence polarization, plate-based MtrR titration: 12 mP and 10 mP and 16 mP
[7]; MtrR WT dimer 50 nM
  fluorescence polarization, plate-based MtrR titration: 21 mP and 17 mP and 16 mP
[7]; MtrR WT dimer 75 nM
  fluorescence polarization, plate-based MtrR titration: 25 mP and 18 mP and 24 mP
[7]; MtrR WT dimer 100 nM
  fluorescence polarization, plate-based MtrR titration: 29 mP and 24 mP
[7]; MtrR WT dimer 150 nM
  fluorescence polarization, plate-based MtrR titration: 36 mP and 29 mP and 33 mP
[7]; MtrR WT dimer 200 nM
  fluorescence polarization, plate-based MtrR titration: 40 mP and 31 mP and 33 mP
[7]; MtrR WT dimer 300 nM
  fluorescence polarization, plate-based MtrR titration: 44 mP and 39 mP and 40 mP
[7]; MtrR WT dimer 400 nM
  fluorescence polarization, plate-based MtrR titration: 48 mP and 37 mP and 40 mP
[7]; MtrR WT dimer 600 nM
  fluorescence polarization, plate-based MtrR titration: 50 mP and 42 mP and 51 mP
[7]; MtrR WT dimer 800 nM
  fluorescence polarization, plate-based MtrR titration: 50 mP and 44 mP and 53 mP
[8]
  binding to MtrR W136A compared with wild type: tolerates binding

## CC[C@H]1OC(=O)[C@H](C)[C@@H](O[C@H]2C[C@@](C)(OC)[C@@H](O)[C@H](C)O2)[C@H](C)[C@@H](O[C@@H]2O[C@H](C)C[C@H](N(C)C)[C@H]2O)[C@](C)(O)C[C@@H](C)CN(C)[C@H](C)[C@@H](O)[C@]1(C)O [azithromycin]
[4]
  binding to MtrR WT: no binding; also recorded: does not bind

## C[C@H](CCC(=O)O)[C@H]1CC[C@H]2[C@@H]3[C@H](O)C[C@@H]4C[C@H](O)CC[C@]4(C)[C@H]3CC[C@]12C [chenodeoxycholate]
[9]
  MtrR binding and induction: binds and is induced by

## CC(C)CCC[C@@H](C)[C@H]1CC[C@H]2[C@@H]3CC=C4C[C@@H](O)CC[C@]4(C)[C@H]3CC[C@]12C [cholesterol]
[4]
  binding to MtrR WT: no binding

## C[C@]12CCC(=O)C=C1CC[C@@H]1[C@@H]2[C@@H](O)C[C@@]2(C)[C@H]1CC[C@]2(O)C(=O)CO [cortisol]
[4]
  binding to MtrR WT: no binding

## C[C@H](CCC(=O)NCCS(=O)(=O)O)[C@H]1CC[C@H]2[C@@H]3CC[C@@H]4C[C@H](O)CC[C@]4(C)[C@H]3C[C@H](O)[C@]12C [taurodeoxycholate]
[9]
  MtrR binding and induction: binds and is induced by
